# Test results from ChEMBL document CHEMBL1201862, “PubChem BioAssay data set” (2004).
#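 Step 1: Grow cells in 96-well plates. Step 2: Expose to compound for 48 hours at 5 concentrations. Step 3: Interpolate endpoints linearly; if unreached, use highest concentration. At the GI50, growth is halved.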 Activity calls are given as the source filed them. Cut-off read from the data, not from the text of the source: active = GI50 up to about 1.1 µM and inactive = higher.
# Assays:
# Assay in all cases: NCI-60 cell line screen, 48 h
# [1] = system: PC-3
# [2] = system: HL-60
# [3] = system: OVCAR-4
# [4] = system: HCC 2998
# [5] = system: Hs-578T
# [6] = system: RXF 393
# [7] = system: COLO 205
# [8] = system: CCRF-CEM
# [9] = system: MDA-MB-231
# [10] = system: 786-0
# [11] = system: OVCAR-8
# [12] = system: OVCAR-5
# [13] = system: EKVX
# [14] = system: CAKI-1
# [15] = system: MCF7
# [16] = system: MDA-N
# [17] = system: T47D
# [18] = system: MDA-MB-435
# [19] = system: SNB-19
Structure (SMILES),GI50 [1],GI50 [2],GI50 [3],GI50 [4],GI50 [5],GI50 [6],GI50 [7],GI50 [8],GI50 [9],GI50 [10],GI50 [11],GI50 [12],GI50 [13],GI50 [14],GI50 [15],GI50 [16],GI50 [17],GI50 [18],GI50 [19]
OC(NN=C1CCCC1)(C(F)(F)Cl)C(F)(F)Cl,> 10 µM (inactive),> 10 µM (inactive),> 10 µM (inactive),> 10 µM (inactive),> 10 µM (inactive),> 10 µM (inactive),> 10 µM (inactive),> 10 µM (inactive),> 10 µM (inactive),> 10 µM (inactive),> 10 µM (inactive),> 10 µM (inactive),> 10 µM (inactive),> 10 µM (inactive),> 10 µM (inactive),> 10 µM (inactive),> 10 µM (inactive),> 10 µM (inactive),> 10 µM (inactive)
Cc1ccc2c(c1)C(=O)C(C1OC(=O)c3ccccc31)C2 (configuration not stated),93.5 µM (inactive),64.7 µM (inactive),> 100 µM (inactive),> 100 µM (inactive),69.5 µM (inactive),43.8 µM (inactive),56.2 µM (inactive),89.7 µM (inactive),> 100 µM (inactive),> 100 µM (inactive),> 100 µM (inactive),> 100 µM (inactive),> 100 µM (inactive),> 100 µM (inactive),36.1 µM (inactive),> 100 µM (inactive),76.9 µM (inactive),> 100 µM (inactive),87.3 µM (inactive)
C=CCSC1=N/C(=C\c2ccccc2)C(=O)N1CC=C,24.8 µM (inactive),5.24 µM (inactive),40.6 µM (inactive),28.9 µM (inactive),43 µM (inactive),20.2 µM (inactive),41.6 µM (inactive),22.9 µM (inactive),39.9 µM (inactive),31.7 µM (inactive),32.7 µM (inactive),> 100 µM (inactive),22.5 µM (inactive),60.5 µM (inactive),27.8 µM (inactive),30.3 µM (inactive),29.2 µM (inactive),36.8 µM (inactive),> 100 µM (inactive)
COc1cc(C(=O)NC(CCN)(c2ccccc2)c2ccccc2)cc(OC)c1OC,> 100 µM (inactive),12.2 µM (inactive),21.2 µM (inactive),13.4 µM (inactive),> 56.2 µM (inactive),10.4 µM (inactive),14.1 µM (inactive),> 10 µM (inactive),16.9 µM (inactive),22.9 µM (inactive),> 31.6 µM (inactive),> 87.5 µM (inactive),> 31.6 µM (inactive),35.4 µM (inactive),> 31.6 µM (inactive),19.2 µM (inactive),23.4 µM (inactive),16 µM (inactive),> 58.5 µM (inactive)
Brc1ccc2[nH]cc(-c3csc(-c4c[nH]c5ccccc45)n3)c2c1,3.54 µM (inactive),5.64 µM (inactive),5.42 µM (inactive),2.08 µM (inactive),4.81 µM (inactive),3.61 µM (inactive),2.08 µM (inactive),2.11 µM (inactive),2.17 µM (inactive),2.37 µM (inactive),4.9 µM (inactive),2.02 µM (inactive),2.69 µM (inactive),2.9 µM (inactive),2.13 µM (inactive),2.88 µM (inactive),4.24 µM (inactive),3.84 µM (inactive),3.32 µM (inactive)
CC1=C(/C=C/C(C)=C/C=C/C(C)=C/C(=O)OC2CC(n3cc(F)c(=O)[nH]c3=O)OC2CO)C(C)(C)CCC1 (configuration not stated),1.99 µM (inactive),0.628 µM (active),6.01 µM (inactive),1.97 µM (inactive),6.62 µM (inactive),6.3 µM (inactive),6.93 µM (inactive),0.374 µM (active),9.73 µM (inactive),0.52 µM (active),0.526 µM (active),17.3 µM (inactive),13.9 µM (inactive),0.383 µM (active),0.057 µM (active),6.82 µM (inactive),4.17 µM (inactive),3.97 µM (inactive),3.34 µM (inactive)
Cc1cccc2c(N)c3cccc(C(=O)NCCCNCCN)c3nc12,14.3 µM (inactive),12.2 µM (inactive),1.87 µM (inactive),4.35 µM (inactive),0.23 µM (active),3.4 µM (inactive),6.37 µM (inactive),1.46 µM (inactive),0.593 µM (active),1.71 µM (inactive),5.32 µM (inactive),11 µM (inactive),13.8 µM (inactive),7.91 µM (inactive),0.679 µM (active),13.7 µM (inactive),7.85 µM (inactive),15.5 µM (inactive),3.09 µM (inactive)
COc1cccc2cc(C(=O)Nc3ccccn3)c(=N)oc12,> 100 µM (inactive),21.6 µM (inactive),> 100 µM (inactive),> 100 µM (inactive),55.7 µM (inactive),49 µM (inactive),> 100 µM (inactive),22.8 µM (inactive),63 µM (inactive),95.1 µM (inactive),> 100 µM (inactive),> 100 µM (inactive),> 100 µM (inactive),> 100 µM (inactive),19.1 µM (inactive),82.2 µM (inactive),33 µM (inactive),63.4 µM (inactive),> 100 µM (inactive)
